Experimental data from US12729377B2, “RNAi agents and compositions for inhibiting expression of angiopoietin-like 3 (ANGPTL3), and methods of use” (Arrowhead Pharmaceuticals, Inc., priority 2017, dated 2026).
In the oligonucleotide strings, read from the 5' end, every base follows the letter of its sugar. An asterisk marks phosphorothioate; unmarked linkages are phosphodiester. Other units and linkages are bracketed, terminal groups are in braces. A string of capitals states the bases alone. {NAG37} = tridentate N-acetyl-galactosamine targeting ligand, structure (NAG37)s; [invAb] = inverted abasic unit; m = 2'-O-methyl; f = 2'-fluoro

Key:
[1] = test system: ANGPTL3 protein; experiment: Example 10: serum ANGPTL3 protein by ELISA in mice; assay type: in vivo; details: 0.5 mg/kg single SC injection day 1, female C57bl/6 mice, n=3, ratio to D5W control
Protocol: (§1) To assess the in vivo activity of further ANGPTL3 RNAi agents that are designed to target position 304 on the ANGPTL3 gene, six- to eight-week-old female C57bl/6 mice were used. Pre-dose serum samples were taken at day −1 after a four hour fast. At day 1, each mouse was given a single subcutaneous administration of 200 μl containing 0.5 mg/kg (mpk) of an ANGPTL3 RNAi agent in D5W (dextrose in 5% water), or control (D5W) with no RNAi agent, according to the dosing groups recited in Table 47.
(§2) Each of the RNAi agents included a modified sequence and an N-acetyl-galactosamine-containing targeting ligand conjugated to the 5′ terminal end of the sense strand. (See Tables 3, 4, and 5 for modified sequences and targeting ligand structures). As noted above, each of the ANGPTL3 RNAi agents dosed in this study included nucleotide sequences designed to target the ANGPTL3 gene at position 304. The injections were performed between the skin and muscle (i.e. subcutaneous injections) into the loose skin over the neck and shoulder area. Three (3) mice in each group were tested (n=3). Serum was collected on days 8, 15, 22, 29, and for some groups on day 36 (i.e., Groups 1, 2, and 9-13 only). Mice were fasted for four hours prior to each collection. ANGPTL3 protein levels in serum were measured by ELISA assay (R&D Systems), according to the manufacturer's recommendations. Triglycerides, total cholesterol, high-density lipoprotein (HDL), and low-density lipoprotein (LDL) in serum were measured on a Cobas® Integra 400 (Roche Diagnostics), according to the manufacturer's recommendations.
(§3) The ANGPTL3 protein levels, triglyceride levels, total cholesterol levels, HDL levels, and LDL levels for each animal were normalized. For normalization, the level of ANGPTL3 protein, triglyceride, HDL, and total cholesterol, respectively, for each animal at a time point, was divided by the pre-treatment level of expression in that animal (in this case at day −1) to determine the ratio of expression “normalized to pre-treatment.” Expression at a specific time point was then normalized to the D5W control group by dividing the “normalized to pre-treatment” ratio for an individual animal by the mean “normalized to pretreatment” ratio of all mice in the D5W control group.

[2] = test system: ANGPTL3 gene; experiment: Example 10: serum HDL in mice; assay type: in vivo; details: 0.5 mg/kg single SC injection day 1, female C57bl/6 mice, n=3, ratio to D5W control
Protocol: as §1, §2, §3

[3] = test system: ANGPTL3 gene; experiment: Example 9: serum HDL in cynomolgus monkeys; assay type: in vivo, cynomolgus macaque (Macaca fascicularis); details: 2.0 mg/kg single SC injection day 1, cynos, n=3
Protocol: Additional ANGPTL3 RNAi agents were evaluated in cynomolgus monkeys. On day 1, cynomolgus macaque (Macaca fascicularis) primates (also referred to herein as “cynos”) were administered a single subcutaneous injection of 0.3 mL/kg (approximately 2-3 mL volume, depending on animal mass) containing 2.0 mg/kg of an ANGPTL3 RNAi agent, which included either AD05488, AD05743, AD05775, or AD05841, each formulated in saline. […] ANGPTL3 RNAi agents AD05488, AD05743, and AD05775 included nucleotide sequences designed to target position 304 of the ANGPTL3 gene. ANGPTL3 RNAi agent AD05841 included nucleotide sequences designed to target position 1035 of the ANGPTL3 gene.
Three (3) cynos in each group were tested (n=3). Blood samples were drawn and serum samples were analyzed on days −14 (predose), −7 (predose), 1 (pre-dose), 8, 15, 22, 29, and 35. Cynos were fasted overnight prior to each collection. ANGPTL3 protein levels in serum were measured by ELISA assay (R&D Systems), according to the manufacturer's recommendations. Triglycerides, total cholesterol, high-density lipoprotein (HDL), and low-density lipoprotein (LDL) in serum were measured on a Cobas® Integra 400 (Roche Diagnostics), according to the manufacturer's recommendations.
The ANGPTL3 protein levels, triglyceride levels, total cholesterol levels, HDL levels, and LDL levels for each animal were normalized. For normalization, the level of ANGPTL3 protein, triglyceride, HDL, and total cholesterol, respectively, for each animal at a time point, was divided by the average pre-treatment level of expression in that animal (in this case at days −14, −7, and 1) to determine the ratio of expression “normalized to pre-treatment.”

[4] = test system: ANGPTL3 gene; experiment: Example 4: serum LDL in mice; assay type: in vivo, C57bl/6 mice

Substance | Average ANGPTL3 Protein Normalized to Pre-Treatment and Control ([1]; Day 8) | Average ANGPTL3 Protein Normalized to Pre-Treatment and Control ([1]; Day 15) | Average ANGPTL3 Protein Normalized to Pre-Treatment and Control ([1]; Day 22) | Average ANGPTL3 Protein Normalized to Pre-Treatment and Control ([1]; Day 29) | Average ANGPTL3 Protein Normalized to Pre-Treatment and Control ([1]; Day 36) | Average HDL Normalized to Pre-Treatment and Control ([2]; Day 8) | Average HDL Normalized to Pre-Treatment and Control ([2]; Day 15) | Average HDL Normalized to Pre-Treatment and Control ([2]; Day 22) | Average HDL Normalized to Pre-Treatment and Control ([2]; Day 29) | Average HDL Normalized to Pre-Treatment and Control ([2]; Day 36) | Average HDL Normalized to Pre-Treatment ([3]; Day 8) | Average HDL Normalized to Pre-Treatment ([3]; Day 15) | Average HDL Normalized to Pre-Treatment ([3]; Day 22) | Average HDL Normalized to Pre-Treatment ([3]; Day 29) | Average HDL Normalized to Pre-Treatment ([3]; Day 35) | Avg LDL, normalized to pre-treatment and control ([4]; Day 22, 0.5 mg/kg single SC injection on day 1, n=3) | Avg LDL, normalized to pre-treatment and control ([4]; Day 29, 0.5 mg/kg single SC injection on day 1, n=3) | Avg LDL, normalized to pre-treatment and control ([4]; Day 43, 0.5 mg/kg single SC injection on day 1, n=3)
AD05488: RNAi agent duplex: antisense AM07235-AS, sense AM07234-SS (antisense mU*fA*mC*fUmGfAmUfCmAfAmAfUmAfUmGfUmUfGmAfG*mC; sense {NAG37}*[invAb]*mGmCmUmCmAmAmCmAfUfAfUmUmUmGmAmUmCmAmGmUmA*[invAb]) | 0.179 | 0.197 | 0.196 | 0.258 | 0.297 | 0.648 | 0.807 | 0.733 | 0.746 | 0.816 | 0.985 | 0.911 | 0.849 | 0.856 | 0.810 |  |  | 
AD05308: RNAi agent duplex: antisense AM07003-AS, sense AM07002-SS (chain 1 mU*fG*mU*fUmGfAmAfUmUfAmAfUmGfUmCfCmAfUmGfG*mA; chain 2 {NAG37}*[invAb]*mUmCmCmAmUmGmGmAfCfAfUmUmAmAmUmUmCmAmAmCmA*[invAb]) |  |  |  |  |  |  |  |  |  |  |  |  |  |  |  | 1.209 | 1.251 | 1.375
